Laboratory results from PubChem BioAssay (NCI).
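Interpolation was linear, between the two tested concentrations surrounding the appropriate level; five concentrations were tested over 48 hours in 96-well plates. The concentration for 50% growth inhibition is given as GI50. TGI: concentration producing complete growth inhibition.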

Columns and labels:
Experiment in all cases: NCI anticancer screen, dose series, 48 h
[1] = test system: HL-60(TB) leukemia
[2] = test system: HOP-92 NSCLC
[3] = test system: UO-31 renal
[4] = test system: OVCAR-4 ovarian
[5] = test system: SR leukemia
[6] = test system: SK-MEL-28 melanoma
[7] = test system: OVCAR-3 ovarian
[8] = test system: K-562 leukemia
[9] = test system: SK-OV-3 ovarian
[10] = test system: COLO 205 colon
[11] = test system: M14 melanoma
[12] = test system: EKVX NSCLC
[13] = test system: BT-549 breast
[14] = test system: DU-145 prostate
[15] = test system: 786-0 renal
[16] = test system: SN12C renal
[17] = test system: OVCAR-8 ovarian
[18] = test system: A498 renal
[19] = test system: SF-295 CNS
[20] = test system: KM12 colon
[21] = test system: MDA-MB-435
[22] = test system: UACC-62 melanoma
[23] = test system: HCT-116 colon
[24] = test system: CAKI-1 renal
[25] = test system: U251 CNS
[26] = test system: TK-10 renal
[27] = test system: SK-MEL-2 melanoma
[28] = test system: SNB-19 CNS
[29] = test system: UACC-257 melanoma
[30] = test system: A549 NSCLC
[31] = test system: RPMI-8226 leukemia
[32] = test system: OVCAR-5 ovarian
[33] = test system: MDA-MB-231 breast
[34] = test system: NCI-H226 lung
[35] = test system: ACHN renal
[36] = test system: SK-MEL-5 melanoma
[37] = test system: HT29 colon
[38] = test system: MOLT-4 leukemia
[39] = test system: CCRF-CEM leukemia
[40] = test system: NCI-H522 lung
[41] = test system: HOP-62 NSCLC
[42] = test system: MCF7 breast
[43] = test system: NCI-H460 lung
[44] = test system: SNB-75 CNS
[45] = test system: SF-268 CNS
[46] = test system: RXF 393 renal
[47] = test system: T-47D breast
[48] = test system: NCI-H23 lung
[49] = test system: MALME-3M melanoma
[50] = test system: HCC-2998 colon
[51] = test system: HCT-15 colon
[52] = test system: NCI/ADR-RES ovarian
[53] = test system: IGROV1 ovarian
[54] = test system: SW-620 colon
[55] = test system: PC-3 prostate
[56] = test system: LOX IMVI melanoma
[57] = test system: HS 578T breast

In the case of `Cc1ccc(/C=C2\COc3ccc(O)c(O)c3C2=O)cc1`, the GI50 [1] is reported as 0.421 µM, the TGI [1] is reported as 2.14 µM and the GI50 [2] is reported as 0.887 µM. It also gave a TGI [2] of 5.77 µM, a GI50 [3] of 0.465 µM and a TGI [3] of 1.8 µM. For the same molecule, the GI50 [4] was 1.47 µM, the TGI [4] was 4.96 µM and the GI50 [5] was 0.358 µM. The TGI [5] was greater than 100 µM, the GI50 [6] was 0.933 µM and the TGI [6] was 2.83 µM. It also gave a GI50 [7] of 0.386 µM, a TGI [7] of 1.4 µM and a GI50 [8] of 0.329 µM. The TGI [8] was greater than 100 µM, the GI50 [9] was 0.395 µM and the TGI [9] was 35.1 µM. The GI50 [10] was 2 µM, the TGI [10] was 3.95 µM and the GI50 [11] was 0.292 µM. For the same molecule, the TGI [11] was 1.06 µM, the GI50 [12] was 1.28 µM and the TGI [12] was 4.14 µM. For the same molecule, the GI50 [13] was 0.585 µM, the TGI [13] was 2.64 µM and the GI50 [14] was 0.394 µM. The TGI [14] was 1.71 µM, the GI50 [15] was 0.555 µM and the TGI [15] was 2.49 µM. The GI50 [16] was 0.37 µM, the TGI [16] was 2.33 µM and the GI50 [17] was 0.404 µM. It also gave a TGI [17] greater than 100 µM, a GI50 [18] of 0.249 µM and a TGI [18] of 1.95 µM. It also gave a GI50 [19] of 2.04 µM, a TGI [19] of 9.64 µM and a GI50 [20] of 0.838 µM. For the same molecule, the TGI [20] was 3 µM, the GI50 [21] was 0.233 µM and the TGI [21] was 0.764 µM. For the same molecule, the GI50 [22] was 0.407 µM, the TGI [22] was 1.65 µM and the GI50 [23] was 1.28 µM. For the same molecule, the TGI [23] was 2.93 µM, the GI50 [24] was 0.765 µM and the TGI [24] was 2.2 µM. It also gave a GI50 [25] of 0.922 µM, a TGI [25] of 2.29 µM and a GI50 [26] of 1.47 µM. For the same molecule, the TGI [26] was 3.44 µM, the GI50 [27] was 0.555 µM and the TGI [27] was 3.65 µM. It also gave a GI50 [28] of 1.32 µM, a TGI [28] of 3.27 µM and a GI50 [29] of 1.55 µM. The TGI [29] was 5.38 µM, the GI50 [30] was 2.33 µM and the TGI [30] was 11.5 µM. The GI50 [31] was 0.252 µM, the TGI [31] was 0.818 µM and the GI50 [32] was 1.75 µM. It also gave a TGI [32] of 3.98 µM, a GI50 [33] of 0.34 µM and a TGI [33] of 3.78 µM. The GI50 [34] was 2.13 µM, the TGI [34] was 6.24 µM and the GI50 [35] was 0.639 µM. For the same molecule, the TGI [35] was 2 µM, the GI50 [36] was 0.32 µM and the TGI [36] was 1.26 µM. For the same molecule, the GI50 [37] was 2.78 µM, the TGI [37] was 9.05 µM and the GI50 [38] was 0.403 µM. For the same molecule, the TGI [38] was greater than 29.6 µM, the GI50 [39] was 0.265 µM and the TGI [39] was 1.48 µM. The GI50 [40] was 0.185 µM, the TGI [40] was 0.461 µM and the GI50 [41] was 1.44 µM. The TGI [41] was 6.64 µM, the GI50 [42] was 0.375 µM and the TGI [42] was 9.76 µM. The GI50 [43] was 1.84 µM, the TGI [43] was 5 µM and the GI50 [44] was 0.322 µM. The TGI [44] was 3.48 µM, the GI50 [45] was 1.12 µM and the TGI [45] was 3.35 µM. It also gave a GI50 [46] of 0.372 µM, a TGI [46] of 1.16 µM and a GI50 [47] of 0.951 µM. The TGI [47] was 6.94 µM, the GI50 [48] was 1.45 µM and the TGI [48] was 3.8 µM. It also gave a GI50 [49] of 0.909 µM, a TGI [49] of 3.15 µM and a GI50 [50] of 1.69 µM. For the same molecule, the TGI [50] was 3.28 µM, the GI50 [51] was 0.352 µM and the TGI [51] was 6.41 µM. It also gave a GI50 [52] of 0.343 µM, a TGI [52] greater than 100 µM and a GI50 [53] of 0.559 µM. It also gave a TGI [53] of 2.62 µM, a GI50 [54] of 0.854 µM and a TGI [54] of 3.11 µM. For the same molecule, the GI50 [55] was 0.505 µM, the TGI [55] was 3.74 µM and the GI50 [56] was 0.329 µM. It also gave a TGI [56] of 1.34 µM, a GI50 [57] of 0.362 µM and a TGI [57] greater than 26.4 µM.
